# Active and inactive are the calls of the source. The rule behind the calls is not given here.
# How the values were obtained:
# Bacillus subtilis = assay: Antibacterial activity against Bacillus subtilis 168 after 18 hrs by broth microdilution method; type: functional; settings: subsp. subtilis str. 168, 18 h
# Enterococcus faecium [1] = assay: Antibacterial activity against Enterococcus faecium ATCC 49624 after 18 hrs by broth microdilution method; type: functional; settings: ATCC 49624, 18 h
# Escherichia coli = assay: Antibacterial activity against Escherichia coli ATCC 25922 after 18 hrs by broth microdilution method; type: functional; settings: ATCC 25922, 18 h
# Staphylococcus aureus [2] = assay: Antibacterial activity against Staphylococcus aureus ATCC 29213 after 18 hrs by broth microdilution method; type: functional; settings: ATCC 29213, 18 h
# Enterococcus faecalis [3] = assay: Antibacterial activity against Enterococcus faecalis ATCC 29212 after 18 hrs by broth microdilution method; type: functional; settings: ATCC 29212, 18 h
# [4] = system: Staphylococcus epidermidis; assay: Antibacterial activity against Staphylococcus epidermidis ATCC 12228 after 18 hrs by broth microdilution method; type: functional; settings: ATCC 12228, 18 h
# Staphylococcus aureus [5] = assay: Potency index, ratio of berberine MIC to test compound MIC for Staphylococcus aureus ATCC 29213; type: functional
# Enterococcus faecalis [6] = assay: Potency index, ratio of berberine MIC to test compound MIC for Enterococcus faecalis ATCC 29212; type: functional
# Enterococcus faecium [7] = assay: Potency index, ratio of berberine MIC to test compound MIC for Enterococcus faecium ATCC 49624; type: functional
# [8] = system: Staphylococcus epidermidis; assay: Potency index, ratio of berberine MIC to test compound MIC for Staphylococcus epidermidis ATCC 12228; type: functional
# Enterococcus faecalis [9] = assay: Antibacterial activity against vancomycin-resistant Enterococcus faecalis ATCC 700221 after 18 hrs by broth microdilution method; type: functional; settings: ATCC 700221, 18 h
# Enterococcus faecalis [10] = assay: Antibacterial activity against vancomycin-resistant Enterococcus faecalis ATCC 51575 after 18 hrs by broth microdilution method; type: functional; settings: ATCC 51575, 18 h
# Staphylococcus aureus [11] = assay: Antibacterial activity against methicillin-resistant Staphylococcus aureus ATCC BAA1720 after 18 hrs by broth microdilution method; type: functional; settings: ATCC BAA1720, 18 h
# Staphylococcus aureus [12] = assay: Antibacterial activity against methicillin-resistant Staphylococcus aureus ATCC 33591 after 18 hrs by broth microdilution method; type: functional; settings: ATCC 33591, 18 h
# Staphylococcus aureus [13] = assay: Antibacterial activity against methicillin-resistant Staphylococcus aureus ATCC BAA41 after 18 hrs by broth microdilution method; type: functional; settings: ATCC BAA41, 18 h
# Staphylococcus aureus [14] = assay: Antibacterial activity against methicillin-resistant Staphylococcus aureus ATCC 43300 after 18 hrs by broth microdilution method; type: functional; settings: ATCC 43300, 18 h
# Staphylococcus aureus [15] = assay: Antibacterial activity against methicillin-resistant Staphylococcus aureus ATCC 33592 after 18 hrs by broth microdilution method; type: functional; settings: ATCC 33592, 18 h
# [16] = molecular target: T1, Cell division protein FtsZ (Staphylococcus aureus) (UniProt P0A031); assay: Inhibition of recombinant Staphylococcus aureus FtsZ GTPase activity assessed as reduction in inorganic phosphate formation after 30 mins by colorimetric method
# T1 sequence (whole entry): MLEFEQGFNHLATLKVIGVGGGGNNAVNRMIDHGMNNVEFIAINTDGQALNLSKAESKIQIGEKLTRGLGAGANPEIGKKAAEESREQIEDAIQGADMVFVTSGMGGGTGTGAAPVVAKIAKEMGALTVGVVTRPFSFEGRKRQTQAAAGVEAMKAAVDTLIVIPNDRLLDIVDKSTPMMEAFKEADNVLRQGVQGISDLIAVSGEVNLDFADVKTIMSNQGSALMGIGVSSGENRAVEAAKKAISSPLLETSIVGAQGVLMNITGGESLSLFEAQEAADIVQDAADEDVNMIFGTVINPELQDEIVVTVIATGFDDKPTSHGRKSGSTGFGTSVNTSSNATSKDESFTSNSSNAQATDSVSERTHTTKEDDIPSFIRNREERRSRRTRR
# Staphylococcus aureus [17] = assay: Antibacterial activity against Staphylococcus aureus ATCC 29213 after 10 passages by broth microdilution method; type: functional, organism-based
# Staphylococcus aureus [18] = assay: Ratio of MIC for Staphylococcus aureus ATCC 29213 after and before 11 to 21 serial passages; type: functional
# [19] = molecular target: T1, Cell division protein FtsZ (Staphylococcus aureus); assay: Inhibition of recombinant Staphylococcus aureus FtsZ polymerization at 8 ug/ml by 90 degree light scattering-based fluorescence spectrometric analysis
SMILES,MIC90 (Bacillus subtilis),MIC90 (Enterococcus faecium [1]),MIC90 (Escherichia coli),MIC90 (Staphylococcus aureus [2]),MIC90 (Enterococcus faecalis [3]),MIC90 [4],further results
Cc1nc(CCN2CCNCC2)cc(-c2cccs2)n1,> 192 µg/mL,> 192 µg/mL,> 192 µg/mL,> 192 µg/mL,> 192 µg/mL,> 192 µg/mL,–
Brc1ccc(CN2CCCN(CCc3cc(-c4cccs4)nc(-c4ccncc4)n3)CC2)cc1,4 µg/mL,8 µg/mL,128 µg/mL,4 µg/mL,8 µg/mL,4 µg/mL,Ratio (Staphylococcus aureus [5]): 50 - 100; Ratio (Enterococcus faecalis [6]): 50 - 100; Ratio (Enterococcus faecium [7]): 50 - 100; Ratio [8]: 50 - 100
COc1ccc2cc3[n+](cc2c1OC)CCc1cc2c(cc1-3)OCO2 [BERBERINE],128 µg/mL,> 192 µg/mL,> 192 µg/mL,128 µg/mL,> 192 µg/mL,96 µg/mL,MIC90 (Enterococcus faecalis [9]): > 192 µg/mL; MIC90 (Enterococcus faecalis [10]): > 192 µg/mL; MIC90 (Staphylococcus aureus [11]): 192 µg/mL; MIC90 (Staphylococcus aureus [12]): 192 µg/mL; MIC90 (Staphylococcus aureus [13]): 192 µg/mL; MIC90 (Staphylococcus aureus [14]): 192 µg/mL; MIC90 (Staphylococcus aureus [15]): 192 µg/mL
Cc1ccc(CN2CCN(CCc3cc(-c4cccs4)nc(C)n3)CC2)cc1,192 µg/mL,> 192 µg/mL,> 192 µg/mL,192 µg/mL,> 192 µg/mL,192 µg/mL,–
Cc1nc(CCN2CCCN(Cc3ccc(F)cc3)CC2)cc(-c2cccs2)n1,128 µg/mL,192 µg/mL,> 192 µg/mL,128 µg/mL,192 µg/mL,128 µg/mL,–
Fc1ccc(CN2CCCN(CCc3cc(-c4cccs4)nc(-c4ccncc4)n3)CC2)cc1,8 µg/mL,16 µg/mL,> 128 µg/mL,8 µg/mL,16 µg/mL,8 µg/mL,Ratio (Staphylococcus aureus [5]): 50 - 100; Ratio (Enterococcus faecalis [6]): 50 - 100; Ratio (Enterococcus faecium [7]): 50 - 100; Ratio [8]: 50 - 100
Cc1nc(CCN2CCN(Cc3ccccc3)CC2)cc(-c2cccs2)n1,> 192 µg/mL,> 192 µg/mL,> 192 µg/mL,> 192 µg/mL,> 192 µg/mL,> 192 µg/mL,–
Cc1nc(CCN2CCCN(Cc3ccc(C(C)C)cc3)CC2)cc(-c2cccs2)n1,64 µg/mL,64 µg/mL,128 µg/mL,32 µg/mL,64 µg/mL,32 µg/mL,inhibition [16]: Dose-dependent effect; Activity (Staphylococcus aureus [17]): Active; Activity (Staphylococcus aureus [18]): Active; inhibition [19]: Active
Cc1nc(CCN(C)CCN(C)Cc2ccccc2)cc(-c2cccs2)n1,> 192 µg/mL,> 192 µg/mL,> 192 µg/mL,> 192 µg/mL,> 192 µg/mL,> 192 µg/mL,–
Cc1nc(CCN2C[C@@H]3C[C@H]2CN3C(=O)OC(C)(C)C)cc(-c2cccs2)n1,> 192 µg/mL,> 192 µg/mL,> 192 µg/mL,> 192 µg/mL,> 192 µg/mL,> 192 µg/mL,–
Cc1nc(-c2cccs2)cc([C@H]2CN3CC[C@H]2C[C@@H]3CNC(=O)CCCC(=O)O)n1,192 µg/mL,> 192 µg/mL,384 µg/mL,192 µg/mL,> 192 µg/mL,192 µg/mL,–
Cc1nc(CCN2CCCN(Cc3ccccc3)CC2)cc(-c2cccs2)n1,192 µg/mL,> 192 µg/mL,> 192 µg/mL,192 µg/mL,> 192 µg/mL,192 µg/mL,–
Fc1ccc(CN2CCCN(CCc3cc(-c4cccs4)nc(-c4ccncc4)n3)CC2)cc1F,4 µg/mL,8 µg/mL,128 µg/mL,4 µg/mL,8 µg/mL,4 µg/mL,Ratio (Staphylococcus aureus [5]): 50 - 100; Ratio (Enterococcus faecalis [6]): 50 - 100; Ratio (Enterococcus faecium [7]): 50 - 100; Ratio [8]: 50 - 100
Cc1nc(CCN2CCCN(Cc3cccc(F)c3)CC2)cc(-c2cccs2)n1,128 µg/mL,192 µg/mL,> 192 µg/mL,128 µg/mL,192 µg/mL,128 µg/mL,–
Fc1cccc(CN2CCCN(CCc3cc(-c4cccs4)nc(-c4ccncc4)n3)CC2)c1,8 µg/mL,16 µg/mL,> 128 µg/mL,8 µg/mL,16 µg/mL,8 µg/mL,Ratio (Staphylococcus aureus [5]): 50 - 100; Ratio (Enterococcus faecalis [6]): 50 - 100; Ratio (Enterococcus faecium [7]): 50 - 100; Ratio [8]: 50 - 100
Cc1nc(CCN2C[C@@H]3C[C@H]2CN3)cc(-c2cccs2)n1,> 192 µg/mL,> 192 µg/mL,> 192 µg/mL,> 192 µg/mL,> 192 µg/mL,> 192 µg/mL,–
c1ccc(CN2CCCN(CCc3cc(-c4cccs4)nc(-c4ccncc4)n3)CC2)cc1,16 µg/mL,32 µg/mL,> 128 µg/mL,16 µg/mL,32 µg/mL,16 µg/mL,Ratio (Staphylococcus aureus [5]): 50 - 100; Ratio (Enterococcus faecalis [6]): 50 - 100; Ratio (Enterococcus faecium [7]): 50 - 100; Ratio [8]: 50 - 100

# Now from value to compound, other results behind:
MIC90 (Bacillus subtilis),MIC90 (Enterococcus faecium [1]),MIC90 (Escherichia coli),MIC90 (Staphylococcus aureus [2]),MIC90 (Enterococcus faecalis [3]),MIC90 [4],SMILES,further results
> 192 µg/mL,> 192 µg/mL,> 192 µg/mL,> 192 µg/mL,> 192 µg/mL,> 192 µg/mL,Cc1nc(CCN2CCN(C(=O)OC(C)(C)C)CC2)cc(-c2cccs2)n1,–
64 µg/mL,64 µg/mL,128 µg/mL,32 µg/mL,64 µg/mL,32 µg/mL,Cc1nc(CCN2CCCN(Cc3ccc(C(C)(C)C)cc3)CC2)cc(-c2cccs2)n1,–
> 192 µg/mL,> 192 µg/mL,> 192 µg/mL,> 192 µg/mL,> 192 µg/mL,> 192 µg/mL,Cc1nc(CCNCCN2CCCCC2)cc(-c2cccs2)n1,–
> 192 µg/mL,> 192 µg/mL,> 192 µg/mL,> 192 µg/mL,> 192 µg/mL,> 192 µg/mL,Cc1nc(CCNCCN2CCOCC2)cc(-c2cccs2)n1,–
> 192 µg/mL,> 192 µg/mL,> 192 µg/mL,> 192 µg/mL,> 192 µg/mL,> 192 µg/mL,Cc1nc(CCN2CCN(c3ccc(C(F)(F)F)cc3)CC2)cc(-c2cccs2)n1,–
192 µg/mL,> 192 µg/mL,> 192 µg/mL,192 µg/mL,> 192 µg/mL,192 µg/mL,Cc1nc(CCN2CCN(Cc3ccc(F)cc3)CC2)cc(-c2cccs2)n1,–
192 µg/mL,> 192 µg/mL,> 192 µg/mL,192 µg/mL,> 192 µg/mL,192 µg/mL,Cc1nc(CCN2CCCN(Cc3ccccc3F)CC2)cc(-c2cccs2)n1,–
128 µg/mL,128 µg/mL,> 192 µg/mL,128 µg/mL,128 µg/mL,128 µg/mL,Cc1nc(CCN2CCCN(Cc3ccc(F)c(F)c3)CC2)cc(-c2cccs2)n1,–
> 192 µg/mL,> 192 µg/mL,> 192 µg/mL,> 192 µg/mL,> 192 µg/mL,> 192 µg/mL,Cc1nc(CCNCCN2CCCC2)cc(-c2cccs2)n1,–

# Source: ChEMBL document CHEMBL4325853, “Design, synthesis and antibacterial evaluation of 2,4-disubstituted-6-thiophenyl-pyrimidines” (Eur J Med Chem, 2019)
